Common to all, as to test: cAMP induction, firefly luciferase reporter assay in HEK293 cells co-transfected with receptor
Holding throughout (assay type): cell-based
Holding throughout (settings): Table 1, analogs of SEQ ID NO: 37
(A reporter such as luciferase makes a cellular process visible.)

One assay has as its target T1, glucagon receptor (Homo sapiens, UniProt P47871).
T1 construct: expressed in transfected cells; host or cells: HEK293
The method, then:
(§1) The ability of glucagon analogs to induce cAMP was measured in a firefly luciferase-based reporter assay. […] At the end of the incubation 100 microliters of LucLite luminescence substrate reagent (Perkin-Elmer, Wellesley, Mass.) were added to each well. […] Effective 50% concentrations were calculated by using Origin software (OriginLab, Northampton, Mass.

The next assay has as its target T2, GIP receptor (Homo sapiens, UniProt P48546).
T2 construct: expressed in transfected cells; host or cells: HEK293
T2 sequence (P48546 22-466): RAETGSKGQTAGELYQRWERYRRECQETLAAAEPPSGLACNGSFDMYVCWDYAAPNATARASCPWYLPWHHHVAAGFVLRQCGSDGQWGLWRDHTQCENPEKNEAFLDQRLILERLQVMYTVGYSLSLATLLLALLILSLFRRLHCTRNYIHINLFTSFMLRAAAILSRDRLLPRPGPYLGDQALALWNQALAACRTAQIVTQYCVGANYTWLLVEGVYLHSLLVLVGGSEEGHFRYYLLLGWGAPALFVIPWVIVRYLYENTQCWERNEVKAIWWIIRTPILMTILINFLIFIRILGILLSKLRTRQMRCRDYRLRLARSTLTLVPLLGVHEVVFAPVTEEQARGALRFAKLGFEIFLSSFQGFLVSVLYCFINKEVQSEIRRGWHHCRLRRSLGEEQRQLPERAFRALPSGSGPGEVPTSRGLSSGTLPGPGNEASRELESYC
As for the experimental part:
as §1

A further assay concerns the target T3, GLP-1 receptor (Homo sapiens, UniProt P43220).
T3 construct: expressed in transfected cells; host or cells: HEK293
The method, then:
as §1

Numbered stars: 1 amine (or outer) side, 2 acyl side, 3 side chain; on linkers, the order of the positions; unused ones are H or OH. Square brackets hold non-standard residues; d marks the D form. Side chains are listed from the residue outwards. Peptide text beside a SMILES is read from it. * marks the point of attachment. γGlu = O=C(O)[C@H](CCC(=O)[*:2])N[*:1]; Palmitoyl = CCCCCCCCCCCCCCCC(=O)*; Sar = CNCC(=O)O

T1 sequence (P47871 26-477): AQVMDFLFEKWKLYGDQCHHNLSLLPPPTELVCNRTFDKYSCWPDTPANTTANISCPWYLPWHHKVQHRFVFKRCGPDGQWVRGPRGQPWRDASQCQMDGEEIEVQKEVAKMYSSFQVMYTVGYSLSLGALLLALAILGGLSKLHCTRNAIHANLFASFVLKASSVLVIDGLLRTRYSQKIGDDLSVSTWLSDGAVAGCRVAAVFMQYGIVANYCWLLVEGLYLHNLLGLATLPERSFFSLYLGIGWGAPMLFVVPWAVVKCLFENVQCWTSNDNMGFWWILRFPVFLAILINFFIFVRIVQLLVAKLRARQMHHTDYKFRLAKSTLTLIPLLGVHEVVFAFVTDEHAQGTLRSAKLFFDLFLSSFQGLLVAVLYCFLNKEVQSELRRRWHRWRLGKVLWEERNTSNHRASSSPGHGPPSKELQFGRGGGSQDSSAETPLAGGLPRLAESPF
T3 sequence (P43220 24-463): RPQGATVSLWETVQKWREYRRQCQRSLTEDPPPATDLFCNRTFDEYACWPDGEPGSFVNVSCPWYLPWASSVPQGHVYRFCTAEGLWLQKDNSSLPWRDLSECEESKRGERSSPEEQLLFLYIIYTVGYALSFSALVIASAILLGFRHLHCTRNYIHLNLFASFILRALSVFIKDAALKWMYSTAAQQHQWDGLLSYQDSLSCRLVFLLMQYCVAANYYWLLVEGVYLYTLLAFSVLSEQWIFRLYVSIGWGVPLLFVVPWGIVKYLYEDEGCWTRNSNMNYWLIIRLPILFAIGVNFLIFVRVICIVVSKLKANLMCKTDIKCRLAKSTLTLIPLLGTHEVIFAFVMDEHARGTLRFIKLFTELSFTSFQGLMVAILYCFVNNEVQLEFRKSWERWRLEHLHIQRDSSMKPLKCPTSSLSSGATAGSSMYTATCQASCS

As for `CCCCCCCCCCCCCCCC(=O)N[C@@H](CCC(=O)NCCCC[C@H](NC(=O)[C@H](CC(=O)O)NC(=O)[C@H](CO)NC(=O)[C@@H](NC(=O)[C@H](Cc1ccccc1)NC(=O)[C@@H](NC(=O)CNC(=O)[C@H](CCC(N)=O)NC(=O)[C@@H]1CCCN1C(=O)[C@H](N)Cc1c[nH]cn1)[C@@H](C)O)[C@@H](C)O)C(=O)N[C@@H](CO)C(=O)N[C@@H](CCCCN)C(=O)N[C@@H](Cc1ccc(O)cc1)C(=O)N[C@@H](CC(C)C)C(=O)N[C@@H](CC(=O)O)C(=O)N[C@@H](CCC(=O)O)C(=O)N[C@@H](CCCNC(=N)N)C(=O)N[C@@H](C)C(=O)N[C@@H](C)C(=O)N[C@@H](CCC(N)=O)C(=O)N[C@@H](CC(=O)O)C(=O)N[C@@H](Cc1ccccc1)C(=O)N[C@H](C(=O)N[C@@H](CCC(N)=O)C(=O)N[C@@H](Cc1c[nH]c2ccccc12)C(=O)N[C@@H](CC(C)C)C(=O)N[C@@H](CC(C)C)C(=O)N[C@@H](CCC(=O)O)C(=O)NCC(=O)NCC(=O)N1CCC[C@H]1C(=O)N[C@@H](CO)C(=O)N[C@@H](CO)C(=O)NCC(=O)N[C@@H](C)C(=O)N1CCC[C@H]1C(=O)N1CCC[C@H]1C(=O)N1CCC[C@H]1C(=O)N[C@@H](CO)C(N)=O)C(C)C)C(=O)O` [compound 27] (H-[dH]PQGTFTSDK([γGlu-Palmitoyl])SKYLDERAAQDFVQWLLEGGPSSGAPPPS-NH2; N-terminus assumed), the 50% effective concentration (EC50) (in general, the concentration needed to bring the measured effect to its halfway point) turned out to be 0.034 nM at glucagon receptor, 0.08 nM at GIP receptor and 0.003 nM on GLP-1 receptor.
As for `CCCCCCCCCCCCCCCC(=O)N[C@@H](CCC(=O)NCCCC[C@H](NC(=O)[C@H](CC(=O)O)NC(=O)[C@H](CO)NC(=O)[C@@H](NC(=O)[C@H](Cc1ccccc1)NC(=O)[C@@H](NC(=O)CNC(=O)[C@H](CCC(N)=O)NC(=O)CN(C)C(=O)[C@@H](N)Cc1c[nH]cn1)[C@@H](C)O)[C@@H](C)O)C(=O)N[C@@H](CO)C(=O)N[C@@H](CCCCN)C(=O)N[C@@H](Cc1ccc(O)cc1)C(=O)N[C@@H](CC(C)C)C(=O)N[C@@H](CC(=O)O)C(=O)N[C@@H](CCC(=O)O)C(=O)N[C@@H](CCCNC(=N)N)C(=O)N[C@@H](C)C(=O)N[C@@H](C)C(=O)N[C@@H](CCC(N)=O)C(=O)N[C@@H](CC(=O)O)C(=O)N[C@@H](Cc1ccccc1)C(=O)N[C@H](C(=O)N[C@@H](CCC(N)=O)C(=O)N[C@@H](Cc1c[nH]c2ccccc12)C(=O)N[C@@H](CC(C)C)C(=O)N[C@@H](CC(C)C)C(=O)N[C@@H](CCC(=O)O)C(=O)NCC(=O)NCC(=O)N1CCC[C@H]1C(=O)N[C@@H](CO)C(=O)N[C@@H](CO)C(=O)NCC(=O)N[C@@H](C)C(=O)N1CCC[C@H]1C(=O)N1CCC[C@H]1C(=O)N1CCC[C@H]1C(=O)N[C@@H](CO)C(N)=O)C(C)C)C(=O)O` [compound 28] (H-H[Sar]QGTFTSDK([γGlu-Palmitoyl])SKYLDERAAQDFVQWLLEGGPSSGAPPPS-NH2), the EC50 at glucagon receptor worked out at 0.022 nM; at GIP receptor it was 0.081 nM; on GLP-1 receptor, 0.002 nM.
